In brackets after ≈: the same amount, converted by molar mass. Activity calls are given as the source filed them. The rule behind the calls is not given here.
Assays:
[1] = test system: Candida albicans; assay: Antifungal activity against Candida albicans SC5314 assessed as inhibition of fungal growth incubated for 24 hrs by broth microdilution assay; type: functional
[2] = Toxicity in zebrafish embryos assessed as mortality treated at 6 hpf and measured at 120 hpf by stereomicroscopic analysis; design: species or system Danio rerio; conditions: in vivo
[3] = test system: Candida albicans; assay: Anti-virulence activity against Candida albicans SC5314 assessed as inhibition of fungal filamentation by measuring reduction in hyphae formation in RPMI medium at 5 uM incubated for 3 to 5 days by stereomicroscopic analysis; type: functional, organism-based; conditions: time 3-5 day
[4] = test system: Candida albicans; assay: Anti-virulence activity against Candida albicans SC5314 assessed as inhibition of fungal filamentation by measuring reduction in hyphae formation in YPS plus uridine medium at 5 uM incubated for 3 to 5 days by stereomicroscopic analysis; type: functional, organism-based; conditions: time 3-5 day
[5] = test system: Candida albicans; assay: Anti-virulence activity against Candida albicans SC5314 assessed as inhibition of fungal filamentation by measuring reduction in hyphae formation in YPS medium at 5 uM incubated for 3 to 5 days by stereomicroscopic analysis; type: functional, organism-based; conditions: time 3-5 day
[6] = test system: Candida albicans; assay: Anti-virulence activity against Candida albicans SC5314 assessed as inhibition of fungal filamentation by measuring reduction in hyphae formation in Spider medium at 5 uM incubated for 3 to 5 days by stereomicroscopic analysis; type: functional, organism-based; conditions: time 3-5 day
[7] = test system: Candida albicans; assay: Anti-virulence activity against Candida albicans SC5314 assessed as inhibition of fungal filamentation by measuring reduction in hyphae formation in Lee medium at 5 uM incubated for 3 to 5 days by stereomicroscopic analysis; type: functional, organism-based; conditions: time 3-5 day
[8] = test system: Candida albicans; assay: Anti-virulence activity against Candida albicans SC5314 assessed as inhibition of fungal filamentation by measuring reduction in hyphae formation in YPS plus uridine medium upto 10 uM incubated for 3 to 5 days by stereomicroscopic analysis; type: functional, organism-based; conditions: time 3-5 day
[9] = test system: Candida albicans; assay: Anti-virulence activity against Candida albicans SC5314 assessed as inhibition of fungal filamentation by measuring reduction of hyphae formation in RPMI medium upto 10 uM incubated for 3 to 5 days by stereomicroscopic analysis; type: functional, organism-based; conditions: time 3-5 day
[10] = test system: Candida albicans; assay: Anti-virulence activity against Candida albicans SC5314 assessed as inhibition of fungal filamentation by measuring reduction in hyphae formation in Lee medium upto 10 uM incubated for 3 to 5 days by stereomicroscopic analysis; type: functional, organism-based; conditions: time 3-5 day
[11] = test system: Candida albicans; assay: Anti-virulence activity against Candida albicans SC5314 assessed as inhibition of fungal filamentation by measuring reduction in hyphae formation in GlcNAc medium upto 10 uM incubated for 3 to 5 days by stereomicroscopic analysis; type: functional, organism-based; conditions: time 3-5 day
[12] = test system: Candida albicans; assay: Anti-virulence activity against Candida albicans SC5314 assessed as inhibition of fungal filamentation by measuring reduction in hyphae formation in Spider medium upto 10 uM incubated for 3 to 5 days by stereomicroscopic analysis; type: functional, organism-based; conditions: time 3-5 day
[13] = test system: Candida albicans; assay: Anti-virulence activity against Candida albicans SC5314 assessed as inhibition of fungal filamentation by measuring reduction in hyphae formation in YPS medium upto 10 uM incubated for 3 to 5 days by stereomicroscopic analysis; type: functional, organism-based; conditions: time 3-5 day
[14] = test system: Candida albicans; assay: Anti-virulence activity against Candida albicans SC5314 assessed as inhibition of fungal filamentation by measuring reduction in hyphae formation in SLAD medium upto 10 uM incubated for 3 to 5 days by stereomicroscopic analysis; type: functional, organism-based; conditions: time 3-5 day
[15] = Toxicity in zebrafish embryos assessed as toxic responses at 200 uM treated at 6 hpf and measured at 120 hpf by stereomicroscopic analysis; design: species or system Danio rerio; conditions: in vivo, 24 h
[16] = Toxicity against zebrafish embryo infected with 53-75 RFP expressing cells of Candida albicans M137 assessed as mortality at 2.5 to 10 uM treated at 1 hr post-infection and measured on day 4 post-infection; design: species or system Danio rerio; conditions: 96 h, dose 2.5-10 µM, time 4 day
[17] = test system: Candida albicans; assay: Anti-virulence activity against Candida albicans SC5314 assessed as inhibition of fungal filamentation by measuring reduction of hyphae formation in SLAD medium at 1.3 uM incubated for 3 to 5 days by stereomicroscopic analysis; type: functional, organism-based; conditions: time 3-5 day
[18] = test system: Candida albicans; assay: Anti-virulence activity against Candida albicans SC5314 assessed as inhibition of fungal filamentation by measuring reduction of hyphae formation in RPMI medium at 1.3 uM incubated for 3 to 5 days by stereomicroscopic analysis; type: functional, organism-based; conditions: time 3-5 day
[19] = test system: Candida albicans; assay: Anti-virulence activity against Candida albicans SC5314 assessed as inhibition of fungal filamentation by measuring reduction of hyphae formation in GlcNAc medium at 1.3 uM incubated for 3 to 5 days by stereomicroscopic analysis; type: functional, organism-based; conditions: time 3-5 day
[20] = test system: Candida albicans; assay: Anti-virulence activity against Candida albicans SC5314 assessed as inhibition of fungal filamentation by measuring reduction of hyphae formation in Spider medium at 1.3 uM incubated for 3 to 5 days by stereomicroscopic analysis; type: functional, organism-based; conditions: time 3-5 day
[21] = test system: Candida albicans; assay: Anti-virulence activity against Candida albicans SC5314 assessed as inhibition of fungal filamentation by measuring reduction of hyphae formation in Lee medium at 1.3 uM incubated for 3 to 5 days by stereomicroscopic analysis; type: functional, organism-based; conditions: time 3-5 day
[22] = test system: Candida albicans; assay: Anti-virulence activity against Candida albicans SC5314 assessed as inhibition of fungal filamentation by measuring reduction of hyphae formation in YPS plus uridine medium at 1.3 uM incubated for 3 to 5 days by stereomicroscopic analysis; type: functional, organism-based; conditions: time 3-5 day
[23] = test system: Candida albicans; assay: Anti-virulence activity against Candida albicans SC5314 assessed as inhibition of fungal filamentation by measuring reduction of hyphae formation in YPS medium at 1.3 uM incubated for 3 to 5 days by stereomicroscopic analysis; type: functional, organism-based; conditions: time 3-5 day
[24] = test system: Candida albicans; assay: Anti-virulence activity against 53-75 RFP expressing cells of Candida albicans M137 in hind brain of zebra fish embryo disseminated candidiasis model assessed as inhibition of fungal filamentation by measuring reduction of hyphae formation in the hind brain at 10 uM treated at 1 hr post-infection and measured on day 4 post infection by fluorescence microscopy; type: functional; conditions: M137, 96 h, time 4 day
[25] = Hepatotoxicity in zebrafish embryos assessed as liver failure by measuring necrotic and decreased liver with non-resorbed yolk at 0.25 uM treated at 6 hpf and measured at 120 hpf by stereomicroscopic analysis; type: toxicity, tissue-based, Danio rerio; conditions: in vivo
[26] = Cardiotoxicity in zebrafish embryos assessed as pericardial edema at 0.25 uM treated at 6 hpf and measured at 120 hpf by stereomicroscopic analysis; type: toxicity, Danio rerio
[27] = Hepatotoxicity in zebrafish embryos assessed as liver darkening at 25 uM treated at 6 hpf and measured at 120 hpf by stereomicroscopic analysis; type: toxicity, Danio rerio; conditions: in vivo

| Structure (SMILES) | MIC [1] [µM] | LC50 [2] [µM] | Activity [3] | Activity [4] | Activity [5] | Activity [6] | Activity [7] | further results |
| --- | --- | --- | --- | --- | --- | --- | --- | --- |
| CCCn1nnc(N)n1 | > 200 | > 200 | – | – | – | – | – | – |
| O=[N+]([O-])c1ccc(Nc2nnnn2Cc2ccccc2)cc1 | > 200 | > 200 | – | – | – | – | – | – |
| CCCn1nnc(Nc2ccccc2)n1 | > 200 | > 200 | Active | Active | Active | Active | Active | – |
| c1ccc(Cn2nnnc2Nc2ccccc2)cc1 | > 200 | > 200 | – | – | – | – | – | Activity [8]: Active; Activity [9]: Active; Activity [10]: Active; Activity [11]: Active; Activity [12]: Active; Activity [13]: Active; Activity [14]: Active |
| Nc1nnnn1Cc1ccccc1 | > 200 | > 200 | Active | Active | Active | Active | Active | – |
| Clc1ccc(Nc2nnnn2Cc2ccccc2)cc1 | > 200 | > 200 | – | – | – | – | – | – |
| Nc1nnn(Cc2ccccc2)n1 | > 200 | > 200 | – | – | – | – | – | – |
| CCCn1nnnc1Nc1ccnc(Cl)n1 | > 200 | > 200 | – | – | – | – | – | Activity [8]: Active; Activity [9]: Active; Activity [10]: Active; Activity [11]: Active; Activity [12]: Active; Activity [13]: Active; Activity [14]: Active |
| COc1ccc(Nc2nnnn2Cc2ccccc2)cc1 | > 200 | > 200 | Active | Active | Active | Active | Active | – |
| Nc1nnn[nH]1 | > 200 | > 200 | Active | Active | Active | Active | Active | Activity [15]: Non-Toxic; Activity [16]: Non-Toxic |
| c1ccc(Nc2nnnn2-c2ccccc2)cc1 | 194 (≈ 46 µg/mL) | – | Active | Active | Active | Active | Active | – |
| O=Cc1ccc(Nc2nnnn2Cc2ccccc2)cc1 | > 200 | > 200 | Active | Active | Active | Active | Active | – |
| CC(=O)c1ccc(Nc2nnnn2Cc2ccccc2)cc1 | > 200 | > 200 | – | – | – | – | – | – |
| Clc1cccc(Nc2nnnn2Cc2ccccc2)c1 | > 200 | > 200 | – | – | – | – | – | – |
| CCCn1nnnc1N | > 200 | > 200 | Active | Active | Active | Active | Active | Activity [16]: Non-Toxic |
| CN(C)CCCNc1nccc(Nc2nnnn2Cc2ccccc2)n1 | > 200 | > 200 | – | – | – | – | – | – |
| Nc1nnn(CCC23CC4CC(CC(C4)C2)C3)n1 | > 200 | > 200 | – | – | – | – | – | Activity [8]: Active; Activity [17]: Active; Activity [9]: Active; Activity [18]: Active; Activity [19]: Active; Activity [10]: Active; Activity [20]: Active; Activity [11]: Active; Activity [21]: Active; Activity [12]: Active; Activity [22]: Active; Activity [23]: Active; Activity [13]: Active; Activity [14]: Active |
| N#Cc1ccc(Nc2nnnn2Cc2ccccc2)cc1 | > 200 | > 200 | – | – | – | – | – | – |
| c1ccc(Nc2nnn(CCC34CC5CC(CC(C5)C3)C4)n2)cc1 | > 200 | > 200 | Active | Active | Active | Active | Active | – |
| c1ccc(Nc2nnnn2CCC23CC4CC(CC(C4)C2)C3)cc1 | > 200 | > 200 | – | – | – | – | – | Activity [8]: Active; Activity [17]: Active; Activity [9]: Active; Activity [18]: Active; Activity [19]: Active; Activity [16]: Non-Toxic; Activity [10]: Active; Activity [20]: Active; Activity [11]: Active; Activity [21]: Active; Activity [12]: Active; inhibition in vivo at 10 µM [24]: 100%; Activity [22]: Active; Activity [23]: Active; Activity [13]: Active; Activity [14]: Active |
| Cc1cc(Cl)ccc1Nc1nnnn1Cc1ccccc1 | 6.4 (≈ 1.92 µg/mL) | – | – | – | – | – | – | – |
| c1ccc(Nc2nn[nH]n2)cc1 | > 200 | > 200 | – | – | – | – | – | Activity [15]: Non-Toxic |
| CCC(C)n1ncn(-c2ccc(N3CCN(c4ccc(OCC5COC(Cn6cncn6)(c6ccc(Cl)cc6Cl)O5)cc4)CC3)cc2)c1=O (stereo not drawn) [ITRACONAZOLE] | – | – | – | – | – | – | – | Activity [25]: Toxic; Activity [26]: Toxic |
| CCCn1nnnc1Nc1ccccc1 | > 200 | > 200 | Active | Active | Active | Active | Active | – |
| c1ccc(Cn2nnc(Nc3ccccc3)n2)cc1 | > 200 | > 200 | Active | Active | Active | Active | Active | – |
| Clc1nccc(Nc2nnnn2Cc2ccccc2)n1 | 35.4 (≈ 10.2 µg/mL) | – | – | – | – | – | – | Activity [27]: Toxic |
| c1ccc(Cn2nnnc2Nc2cccnc2)cc1 | > 200 | > 200 | – | – | – | – | – | – |
| COC(=O)c1cccc(Nc2nnnn2Cc2ccccc2)c1 | 35.4 (≈ 11 µg/mL) | – | – | – | – | – | – | – |
| Nc1nnnn1-c1ccccc1 [FENAMOLE] | > 200 | > 200 | Active | Active | Active | Active | Active | – |
